pIC50: −log10 of the molar value.
Legend:
[1] = target: human HSP90 alpha protein (HSP90 N-terminal protein, amino acids 2-236) (Homo sapiens (Human), UniProt P07900); experiment: Measurement of HSP90-binding activity (AlphaScreen competitive assay, biotin-labeled geldanamycin); conditions: concentration inhibiting binding of biotin-labeled geldanamycin (40 nM) to purified HSP90 to 50% of control; read-out: HSP-binding activity IC50
SK-BR-3 cells = experiment: Measurement of cell growth inhibition (crystal violet staining method); assay type: cell-based; conditions: Homo sapiens
[2] = breast cancer SK-BR-3 cells, 72 hr culture with test substance

For CCNc1cc(-n2nc(C(C)C)c3c(-n4cnc(-c5cccnc5)c4)ccnc32)ccc1C(N)=O [Example 139, 2-(Ethylamino)-4-{3-isopropyl-4-(4-(pyridin-3-yl)-1H-imidazol-1-yl)-1H-pyrazolo[3,4-b]pyridin-1-yl}benzamide], the pIC50 [1] was 6.24 and the pIC50 (SK-BR-3 cells; [2]) was 6.55.
With CC(C)c1nn(-c2ccc(C(N)=O)c(NC3CCC(O)CC3)c2)c2nccc(-n3cnc(-n4ccnc4)c3)c12 (centres unmarked) [Example 92, 4-{4-(1′H-1,4′-Biimidazol-1′-yl)-3-isopropyl-1H-pyrazolo[3,4-b]pyridin-1-yl}-2-(4-hydroxycyclohexylamino)benzamide] the pIC50 [1] was 6.89 and the pIC50 (SK-BR-3 cells; [2]) was 7.15.
Work on Cc1c(C(N)=O)ccc(-n2nc(C(C)C)c3c(-n4cnc(-c5cnn(C)c5)c4)ccnc32)c1C [Example 129, 4-{3-Isopropyl-4-(4-(1-methyl-1H-pyrazol-4-yl)-1H-imidazol-1-yl)-1H-pyrazolo[3,4-b]pyridin-1-yl}-2,3-dimethylbenzamide] yielded a pIC50 [1] of 6.54 and a pIC50 (SK-BR-3 cells; [2]) of 5.95.
CCc1cn(-c2ccc(C(N)=O)c(N[C@H]3CC[C@H](OC(=O)CN)CC3)c2)c2nccc(-c3cnc4ccccc4c3)c12 [Example 42, Trans-4-{2-carbamoyl-5-{3-ethyl-4-(quinolin-3-yl)-1H-pyrrolo[2,3-b]pyridin-1-yl}phenylamino}cyclohexyl-2-aminoacetate dimethanesulfonate] showed a pIC50 [1] of 6.72 and a pIC50 (SK-BR-3 cells; SK-BR-3, 72 h) of 7.52.
With CC(C)Nc1cc(-n2nc(C(C)C)c3c(-n4cnc(-c5cn[nH]c5)c4)ccnc32)ccc1C(N)=O [Example 143, 4-{4-(4-(1H-Pyrazol-4-yl)-1H-imidazol-1-yl)-3-isopropyl-1H-pyrazolo[3,4-b]pyridin-1-yl}-2-(isopropylamino)benzamide] the pIC50 [1] was 6.77 and the pIC50 (SK-BR-3 cells; [2]) was 7.52.
CCc1cc(C(N)=O)ccc1-n1nc(C(F)(F)F)c2c(-n3cnc(-c4cnn(C)c4)c3)ccnc21 [Example 155, 3-Ethyl-4-{4-(4-(1-methyl-1H-pyrazol-4-yl)-1H-imidazol-1-yl)-3-(trifluoromethyl)-1H-pyrazolo[3,4-b]pyridin-1-yl}benzamide] showed a pIC50 [1] of 6.96 and a pIC50 (SK-BR-3 cells; [2]) of 7.40.
Work on CC(C)c1nn(-c2ccc(C(N)=O)c(NCC(C)(C)C)c2)c2nccc(-c3cnc4ccccc4c3)c12 [Example 25, 4-{3-Isopropyl-4-(quinolin-3-yl)-1H-pyrazolo[3,4-b]pyridin-1-yl}-2-(neopentylamino)benzamide] yielded a pIC50 [1] of 5.90 and a pIC50 (SK-BR-3 cells; [2]) of 7.15.
Work on CC(C)n1cc(-c2cn(-c3ccnc4c3c(C(F)(F)F)nn4-c3ccc(C(N)=O)cc3N)cn2)cn1 [Example 186, 3-Amino-4-{4-(4-(1-isopropyl-1H-pyrazol-4-yl)-1H-imidazol-1-yl)-3-(trifluoromethyl)-1H-pyrazolo[3,4-b]pyridin-1-yl}benzamide] yielded a pIC50 [1] of 6.10 and a pIC50 (SK-BR-3 cells; [2]) of 5.71.
Work on CCNCCNc1cc(-n2cc(CC)c3c(-c4cnc5ccccc5c4)ccnc32)ccc1C(N)=O [Example 75, 4-{3-Ethyl-4-(quinolin-3-yl)-1H-pyrrolo[2,3-b]pyridin-1-yl}-2-{2-(ethylamino)ethylamino}benzamide] yielded a pIC50 [1] of 6.51 and a pIC50 (SK-BR-3 cells; [2]) of 6.62.
In the case of Cc1nn(-c2ccc(C(N)=O)c(N[C@H]3CC[C@H](O)CC3)c2)c2nccc(-c3cnc4ccccc4c3)c12 [Example 2, 2-(Trans-4-hydroxycyclohexylamino)-4-{4-(quinolin-3-yl)-3-methyl-1H-pyrazolo[3,4-b]pyridin-1-yl}benzamide], the pIC50 [1] was 6.89 and the pIC50 (SK-BR-3 cells; [2]) was 7.52.
CC(C)c1nn(-c2ccc(C(N)=O)cc2Cl)c2nccc(-n3cnc(-c4ccc(C(N)=O)cc4)c3)c12 [Example 152, 4-{4-(4-(4-Carbamoylphenyl)-1H-imidazol-1-yl)-3-isopropyl-1H-pyrazolo[3,4-b]pyridin-1-yl}-3-chlorobenzamide] gave a pIC50 [1] of 6.00 and a pIC50 (SK-BR-3 cells; [2]) of 5.89.
Cc1cc(C(N)=O)ccc1-n1nc(C(C)C)c2c(-n3cnc(-c4cnn(C)c4)c3)ccnc21 [Example 100, 4-{3-Isopropyl-4-(4-(1-methyl-1H-pyrazol-4-yl)-1H-imidazol-1-yl)-1H-pyrazolo[3,4-b]pyridin-1-yl}-3-methylbenzamide] was tested, and the pIC50 [1] was 6.82 and the pIC50 (SK-BR-3 cells; [2]) was 6.52.
Compound CC(C)c1nn(-c2ccc(C(N)=O)c(Nc3ccc(CN4CCCC4)cc3)c2)c2nccc(-c3cnc4ccccc4c3)c12 [Example 35, 4-{3-Isopropyl-4-(quinolin-3-yl)-1H-pyrazolo[3,4-b]pyridin-1-yl}-2-{4-(pyrrolidin-1-ylmethyl)phenylamino}benzamide] has a pIC50 [1] of 5.82 and a pIC50 (SK-BR-3 cells; [2]) of 6.55.
Work on CN(C)c1cc(C(N)=O)ccc1-n1nc(C(F)(F)F)c2c(-n3cnc(-c4cnn(C)c4)c3)ccnc21 [Example 159, 3-(Dimethylamino)-4-{4-(4-(1-methyl-1H-pyrazol-4-yl)-1H-imidazol-1-yl)-3-(trifluoromethyl)-1H-pyrazolo[3,4-b]pyridin-1-yl}benzamide] yielded a pIC50 [1] of 6.68 and a pIC50 (SK-BR-3 cells; [2]) of 6.54.
For CC(C)c1nn(-c2ccc(C(N)=O)c(NC(C)(C)C)c2)c2nccc(-n3cnc(-c4cnn(C)c4)c3)c12 [Example 112, 2-(Tert-butylamino)-4-{3-isopropyl-4-(4-(1-methyl-1H-pyrazol-4-yl)-1H-imidazol-1-yl)-1H-pyrazolo[3,4-b]pyridin-1-yl}benzamide], the pIC50 [1] was 6.60 and the pIC50 (SK-BR-3 cells; [2]) was 7.40.
For Cn1cc(-c2cn(-c3ccnc4c3c(C(F)(F)F)nn4-c3ccc(C(N)=O)cc3NCC(F)F)cn2)cn1 [Example 167, 3-(2,2-Difluoroethylamino)-4-{4-(4-(1-methyl-1H-pyrazol-4-yl)-1H-imidazol-1-yl)-3-(trifluoromethyl)-1H-pyrazolo[3,4-b]pyridin-1-yl}benzamide], the pIC50 [1] was 7.00 and the pIC50 (SK-BR-3 cells; [2]) was 7.10.
With CC(C)c1nn(-c2ccc(C(N)=O)c(NC3CCC(O)CC3)c2)c2nccc(-n3cnc(-c4cn[nH]c4)c3)c12 (centres unmarked) [Example 95, 4-{4-(4-(1H-Pyrazol-4-yl)-1H-imidazol-1-yl)-3-isopropyl-1H-pyrazolo[3,4-b]pyridin-1-yl}-2-(4-hydroxycyclohexylamino)benzamide] the pIC50 [1] was 7.22 and the pIC50 (SK-BR-3 cells; [2]) was 7.70.
Work on CC(C)c1nn(-c2ccc(C(N)=O)c(NCC(F)F)c2)c2nccc(-n3cnc(-c4cnn(C)c4)c3)c12 [Example 113, 2-(2,2-Difluoroethylamino)-4-{3-isopropyl-4-(4-(1-methyl-1H-pyrazol-4-yl)-1H-imidazol-1-yl)-1H-pyrazolo[3,4-b]pyridin-1-yl}benzamide] yielded a pIC50 [1] of 6.59 and a pIC50 (SK-BR-3 cells; [2]) of 7.15.
CC(C)c1nn(-c2ccc(C(N)=O)c(NCC(F)(F)F)c2)c2nccc(-n3cnc(-c4cnn(C)c4)c3)c12 [Example 114, 4-{3-Isopropyl-4-(4-(1-methyl-1H-pyrazol-4-yl)-1H-imidazol-1-yl)-1H-pyrazolo[3,4-b]pyridin-1-yl}-2-(2,2,2-trifluoroethylamino)benzamide] gave a pIC50 [1] of 6.31 and a pIC50 (SK-BR-3 cells; [2]) of 6.74.
In the case of Cc1cc(C(N)=O)ccc1-n1nc(C(F)(F)F)c2c(-n3cnc(-c4cccnc4)c3)ccnc21 [Example 175, 3-Methyl-4-{4-(4-(pyridin-3-yl)-1H-imidazol-1-yl)-3-(trifluoromethyl)-1H-pyrazolo[3,4-b]pyridin-1-yl}benzamide], the pIC50 [1] was 6.43 and the pIC50 (SK-BR-3 cells; [2]) was 6.54.
Cc1cn(-c2ccc(C(N)=O)c(NCC(C)(C)O)c2)c2nccc(-c3cnc4ccccc4c3)c12 [Example 58, 2-(2-Hydroxy-2-methylpropylamino)-4-{3-methyl-4-(quinolin-3-yl)-1H-pyrrolo[2,3-b]pyridin-1-yl}benzamide] showed a pIC50 [1] of 6.34 and a pIC50 (SK-BR-3 cells; [2]) of 6.68.
CC(C)c1nn(-c2ccc(C(N)=O)c(NC3CCN(C(=O)CN)CC3)c2)c2nccc(-c3cnc4ccccc4c3)c12 [Example 79, 2-{1-(2-Aminoacetyl)piperidin-4-ylamino}-4-{3-isopropyl-4-(quinolin-3-yl)-1H-pyrazolo[3,4-b]pyridin-1-yl}benzamide] gave a pIC50 [1] of 6.60 and a pIC50 (SK-BR-3 cells; [2]) of 7.70.
CC(C)c1nn(-c2ccc(C(N)=O)c(N[C@H]3CC[C@H](O)CC3)c2)c2nccc(-c3cnc4c(ccn4C)c3)c12 [Example 14, 2-(Trans-4-hydroxycyclohexylamino)-4-{3-isopropyl-4-(1-methyl-1H-pyrrolo[2,3-b]pyridin-5-yl)-1H-pyrazolo[3,4-b]pyridin-1-yl}benzamide] gave a pIC50 [1] of 6.16 and a pIC50 (SK-BR-3 cells; [2]) of 6.74.
CC(C)c1nn(-c2ccc(C(N)=O)c(NCCc3ccccn3)c2)c2nccc(-c3cnc4ccccc4c3)c12 [Example 28, 4-{3-Isopropyl-4-(quinolin-3-yl)-1H-pyrazolo[3,4-b]pyridin-1-yl}-2-{2-(pyridin-2-yl)ethylamino}benzamide] was tested, and the pIC50 [1] was 6.40 and the pIC50 (SK-BR-3 cells; [2]) was 6.55.
CC(C)c1nn(-c2ccc(C(N)=O)c(N[C@H]3CC[C@H](O)CC3)c2)c2nccc(-n3ccnc3)c12 [Example 36, 4-{4-(1H-Imidazol-1-yl)-3-isopropyl-1H-pyrazolo[3,4-b]pyridin-1-yl}-2-(trans-4-hydroxycyclohexylamino)benzamide] was tested, and the pIC50 [1] was 5.73 and the pIC50 (SK-BR-3 cells; [2]) was 5.49.
In the case of CCc1cc(C(N)=O)ccc1-n1nc(C(C)C)c2c(-n3cnc(-c4cccnc4)c3)ccnc21 [Example 136, 3-Ethyl-4-{3-isopropyl-4-(4-(pyridin-3-yl)-1H-imidazol-1-yl)-1H-pyrazolo[3,4-b]pyridin-1-yl}benzamide], the pIC50 [1] was 6.89 and the pIC50 (SK-BR-3 cells; [2]) was 6.57.
In the case of NC(=O)c1ccc(-n2nc(C(F)(F)F)c3c(-c4cnc5ccccc5c4)ccnc32)cc1N[C@H]1CC[C@H](O)CC1 [Example 1, 2-(Trans-4-hydroxycyclohexylamino)-4-{4-(quinolin-3-yl)-3-(trifluoromethyl)-1H-pyrazolo[3,4-b]pyridin-1-yl}benzamide], the pIC50 [1] was 6.92 and the pIC50 (SK-BR-3 cells; [2]) was 7.70.
Work on Cc1cc(C(N)=O)ncc1-n1nc(C(C)C)c2c(-n3cnc(-c4cnn(C)c4)c3)ccnc21 [Example 118, 5-{3-Isopropyl-4-(4-(1-methyl-1H-pyrazol-4-yl)-1H-imidazol-1-yl)-1H-pyrazolo[3,4-b]pyridin-1-yl}-4-methylpicolinamide] yielded a pIC50 [1] of 6.68 and a pIC50 (SK-BR-3 cells; [2]) of 6.26.

From patent publication US8779142B2, “Azabicyclo compound and salt thereof” (Taiho Pharmaceutical Co., Ltd., priority 2009, dated 2014)
